Experimental data: US20240401101A1, “A LIVE CELL ASSAY TO DETERMINE PERMEABILITY OF TEST MOLECULES TO AND/OR WITHIN THE PEPTIDOGLYCAN SCAFFOLD OF BACTERIA CELLS” (priority 2021, published 2024)

Columns and labels:
Format in all cases: cell-based, Mycobacterium smegmatis
M. smegmatis mc^2 155 [1] = test: PAC-MAN competition with azide-modified test molecules; conditions: concentration dependent analysis, 2 h, then Fl-az; read-out: EC50 of apparent permeation
Procedure: Competition with test molecules. To a 96-well plate added 100 uL DBCO-modified M. smegmatis mc^2 155 cells pre well with 50 μM test molecules, in triplicate respectively. The plate was incubated in 37° C. for 2 h. The cells were spun down for 2 min at 3000 g. The supernatant was decanted, and 50 μM FAM-N3 was then added to each well, followed by incubation in 37° C. for 1 h. The cells were then spun down again, and the pellets were washed with PBST for 2 times and fixed with 4% formaldehyde for 15 mins. The samples were then analyzed by Attune™ NxT Acoustic Focusing Cytometer.
LLysN3 competition. To a 96-well plate added 100 uL DBCO-modified M. smegmatis mc^2 155 cells pre well with different concentration of L-Lys-N3 described in the main text, in triplicate respectively. The plate was incubated in 37° C. for 2 h. The cells were spun down for 2 min at 3000 g. […] The samples were then analyzed by Attune® NxT Acoustic Focusing Cytometer.
Next, we set out to benchmark the ability of the assay to report on the permeability of a set of test small molecules by performing a pilot screen with azide-conjugated compounds. […] Next, cells are treated with Fl-az to quantify the level of unreacted DBCO epitopes.^42 Finally, cells are analyzed by flow cytometry to measure total cellular fluorescence.

M. smegmatis mc^2 155 [2] = test: Example IV: metabolic PG labeling of Msm with DBCO tags followed by azide fluorophore, flow cytometry
Procedure: General method for bacterial peptidoglycan modification. M. smegmatis strains was inoculated from the glycerol stock to the according media and grown for 24 hours until 0.5-0.6 OD, tetrapeptide probes were added to the media and the cells were grown overnight to achieve stationary phase. The cells were harvested the next day and spun down for 2 min at 3000 g, washed with phosphate buffered saline with tween80 (PBST, PBS with 0.05% tween 80) two times and resuspended in PBST to yield DBCO-modified M. smegmatis cells for further labeling and other experiments.
(§1) DBCOtetra compared with stereo control and single amino acid DBCO. M. smegmatis mc^2 155 was inoculated from stationary phase in 1:100 dilution to a fresh 7H9 media with ADC. 25 μM Dap-DBCO, DBCOtetra or DBCOtera(L) were added to the culture tubes respectively, and the cells were grown for 36-40 hours until stationary phase. The cells were harvested and spun down for 2 min at 3000 g, washed with PBST two times and resuspended in PBST. To a 96-well plate added 100 μL cells pre well with 50 μM FAM-N3 in triplicate. The plate was incubated in 37° C. for 1 h and spun down for 2 min at 3000 g. The supernatant was decanted, and the pellets were washed with PBST for 2 times and fixed with 4% formaldehyde for 15 mins. The samples were then analyzed by Attune™ NxT Acoustic Focusing Cytometer.
as §1, with “Confirm for click chemistry on PG.” for “DBCOtetra compared with stereo control and single amino acid DBCO.”, “μM” for “μM Dap-DBCO,”, “FL-tetra” for “DBCOtera(L)”, “uL” for “μL”, “FAM-N3 or 5-carboxy fluorescein accordingly” for “FAM-N3”
as §1, with “Different concentrations of DBCOtetra.” for “DBCOtetra compared with stereo control and single amino acid DBCO.”, “ADC. 5 μM, 10 μM or” for “ADC.”, “μM” for “μM Dap-DBCO,”, “DBCOtetra” for “DBCOtetra or DBCOtera(L)”, “1h” for “1 h”
Different concentration of FAM-N3 and different time. M. smegmatis mc^2 155 was inoculated from stationary phase in 1:100 dilution to a fresh 7H9 media with ADC. 25 μM DBCOtetra were added to the culture tubes, and the cells were grown for 36-40 hours until stationary phase. The cells were harvested and spun down for 2 min at 3000 g, washed with PBST two times and resuspended in PBST. To a 96-well plate added 100 μL cells pre well with different concentration of FAM-N3 described in the main text, 9 wells each. […] The samples were then analyzed by Attune™ NxT Acoustic Focusing Cytometer. […]

Msm ldtΔ5 (PM2750 Δ5) = test: TetD labeling of Ldt knock out strain; conditions: 25 μM TetD, 50 μM Fl-Az
Procedure: Ldt knock down strain. M. smegmatis mc^2 155 and PM2750 Δ5 were inoculated from the glycerol stock to the according media and grown for 24 hours until 0.5-0.6 OD, 25 μM DBCOtetra were added to the media, and the cells were grown overnight to achieve stationary phase. The cells were harvested and spinned down for 2 min at 3000 g, washed with PBST two times and resuspended in PBST. To a 96-well plate added 100 uL cells pre well with 50 μM FAM-N3 accordingly in triplicate. The plate was incubated in 37° C. for 1 h and spun down for 2 min at 3000 g. The supernatant was decanted, and the pellets were washed with PBST for 2 times and fixed with 4% formaldehyde for 15 mins. The samples were then analyzed by Attune™ NxT Acoustic Focusing Cytometer.

M. smegmatis cells = test: Ethidium bromide and Nile red whole-cell accumulation assay; conditions: cells treated with vehicle or TetD (25 or 50 μM); both dyes
Procedure: Ethidium bromide and Nile red whole-cell accumulation assay. To a Costar 96-well half area black opaque flat bottom plate added 100 uL DBCO-modified M. smegmatis cells each well with 5 μM ethidium bromide and 10 μM Nile red in triplicates, respectively. The fluorescent intensity at different time points were taken by a Synergy H1 microplate reader for 90 min with 3 min intervals and continuously orbital shaking. Wavelengths ethidium bromide, excitation 530 nm, emission 590 nm; Nile red, excitation 540 nm, emission 630 nm.

SMILES | EC50 (M. smegmatis mc^2 155 [1]) | PG labeling levels (fluorescence) above vehicle treated cells (M. smegmatis mc^2 155 [2]; Msm, metabolic label then Fl-az) | fluorescence levels of Msm (M. smegmatis mc^2 155 [2]; metabolic label and/or fluorophore as named) | decrease of fluorescence levels relative to the parental cells (Msm ldtΔ5 (PM2750 Δ5)) | accumulation of the permeability probe (EtBr or Nile Red) (M. smegmatis cells)
[N-]=[N+]=NCCCC[C@H](N)C(=O)O [Lys] | 100 µM |  |  |  | 
C[C@H](NC(=O)CCC(=O)N1Cc2ccccc2C#Cc2ccccc21)C(=O)N[C@H](CCC(=O)N[C@@H](CCCCN)C(=O)N[C@H](C)C(=O)O)C(N)=O [TetD] |  | ~85 fold | concentration-dependent increase in cellular fluorescence | ~7 fold | no significant change in the accumulation of the permeability probe
